Key:
[1] = biological target: T1, digoxigenin-labelled MAA lectin (Maackia amurensis, UniProt P0DKL3); experiment: Detection of immobilized sugar derivative with digoxigenin-labelled MAA lectin on streptavidin microtitre plate; type: binding; settings: 0.5-20 pmol/well, read at 405 nm
T1 sequence (P0DKL3 30-278 limits assumed): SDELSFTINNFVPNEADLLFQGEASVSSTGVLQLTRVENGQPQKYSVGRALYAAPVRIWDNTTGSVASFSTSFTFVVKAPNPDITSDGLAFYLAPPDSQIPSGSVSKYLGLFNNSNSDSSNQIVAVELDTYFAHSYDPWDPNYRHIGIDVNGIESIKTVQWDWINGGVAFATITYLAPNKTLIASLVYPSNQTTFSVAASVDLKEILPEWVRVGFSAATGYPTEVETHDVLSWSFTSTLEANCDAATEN
Experimental: Derivatized N-acetyl-neuraminosyl-2,3-D-lactose in TBS is incubated for 4 h at room temperature on a microtitre plate coated with streptavidin as a model substance to test the standard conditions. After immobilization of the sugar derivative (0.5-20 pmol/well in the microtitre plate; dissolved in TBS) the wells are washed five times with 0.25 ml TBS. In order to bind the digoxigenin-labelled MAA lectin (specific for N-acetyl-neuraminosyl-α(2-3)Gal residues) 1-10 μg of the lectin is dissolved in 1 ml TBSM (TBSM=TBS containing 1 mM MgCl2, 1 mM MnCl2 and 1 mM CaCl2) containing 0.5% blocking reagent (Boehringer Mannheim) and subsequently 0.2 ml of the lectin solution/well is incubated for 1 hour at room temperature while shaking gently. After the lectin has bound the wells are washed five times with 0.25 ml buffer (TBST=TBS containing 0.1% Tween-20®). […] The colour development is read at 405 nm and RT after an incubation period of ca. 20 to 30 min. […]
For the detection of N-acetyl-neuraminosyl-2,3-D-lactose the wells are washed five times with 0.25 ml TBS after immobilization of the sugar derivative (0.5-20 pmol/well in the microtitre plate; dissolved in TBS). […] The colour development is read at 405 nm and RT after an incubation period of ca. 20 to 30 min. […]

[2] = biological target: T1, digoxigenin-labelled MAA lectin; experiment: Inhibition of digoxigenin-labelled MAA lectin binding to immobilized fetuin sugar derivatives on streptavidin microtitre plate; settings: fetuin sugar derivatives (10 pmol) on the MTP
[3] = biological target: digoxigenin-labelled SNA lectin (Sambucus nigra, UniProt Q41358); type: binding; settings: saccharide added to wells containing SNA as the lectin; fetuin sugar derivatives (10 pmol)
Sequence of digoxigenin-labelled SNA lectin (Q41358 309-570 limits assumed): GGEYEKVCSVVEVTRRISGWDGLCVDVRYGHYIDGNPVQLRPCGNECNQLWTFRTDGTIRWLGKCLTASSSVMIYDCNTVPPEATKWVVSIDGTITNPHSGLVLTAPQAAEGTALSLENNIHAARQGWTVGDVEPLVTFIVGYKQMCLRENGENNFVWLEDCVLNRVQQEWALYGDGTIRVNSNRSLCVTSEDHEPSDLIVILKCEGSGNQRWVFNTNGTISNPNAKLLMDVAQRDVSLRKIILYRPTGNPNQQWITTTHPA
Sequence of digoxigenin-labelled SNA lectin (Q41358 29-292 partner limits assumed): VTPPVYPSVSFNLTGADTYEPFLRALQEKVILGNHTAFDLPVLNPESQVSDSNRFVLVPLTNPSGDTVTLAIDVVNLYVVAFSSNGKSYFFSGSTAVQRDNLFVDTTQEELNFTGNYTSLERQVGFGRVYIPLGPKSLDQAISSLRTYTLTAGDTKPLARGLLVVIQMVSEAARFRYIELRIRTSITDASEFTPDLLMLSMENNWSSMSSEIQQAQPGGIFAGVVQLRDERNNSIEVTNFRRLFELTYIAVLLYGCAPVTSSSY

[4] = Stability of marker and saccharide conjugates (HPLC analysis); type: physicochemical; settings: after one week in MeOH at 25° C.

In the case of `CC(=O)NC1C(O)CC(OC2C(O)C(CO)OC(OC3C(CO)OC(NNC(=O)NCCNC(=O)c4ccccc4N=Nc4ccc(O)cc4)C(O)C3O)C2O)(C(=O)O)OC1C(O)C(O)CO` (stereo not drawn), the detection limit ([1]; conjugate with BNAH (Example 6)) is reported as 0.5 pmol and the detection limit ([1]; conjugate with marker 4 (Example 4)) is reported as 0.5 pmol.
In the case of `CC(=O)NC1C(O)CC(OC2C(O)C(CO)OC(OC3C(CO)OC(O)C(O)C3O)C2O)(C(=O)O)OC1C(O)C(O)CO` [N-acetyl-neuraminosyl-2,3-D-lactose], the “signal strength, % of the value without inhibition” value ([2]; 200 pmol added) is reported as “about 50%”, the “signal strength, % of the value without inhibition” value ([2]; 500 pmol added) is reported as “about 15%” and the “inhibition of lectin signal” value [3] is reported as “no inhibition”.
For `NNC(=O)NCCNC(=O)c1ccccc1N=Nc1ccc(O)cc1` [marker 4, 2-[2'-(4"-hydroxybenzeneazo)-benzoic acid amido]-ethylsemicarbazide], the “decomposition of the marker” value [4] was “no decomposition”.
